According to patent US20090130707A1, “Methods of reducing the inhibitory effect of a redox active metal ion on the enzymatic hydrolysis of cellulosic material” (priority 2007, published 2009):

Experiments:
[1] = target: T1, Aspergillus oryzae CEL3A beta-glucosidase (Aspergillus oryzae, UniProt Q2UUD6); experiment: Cellobiose hydrolysis by CEL3A beta-glucosidase; type: biochemical; conditions: 10 mM FeSO4; 2 g cellobiose and 1 mg enzyme per liter (FIG. 21)
T1 construct: made in house
Experimental: The Fe(II) inhibition of Aspergillus oryzae CEL3A beta-glucosidase was measured similarly, except cellobiose replaced PASC. The initial rate vs Fe(II) concentration plots appeared as “mixed” type, whose complexity prevented extraction of Kis.

[2] = system: Cellulolytic Enzyme Composition #1; experiment: mini-plate-scale AVICEL hydrolysis by Cellulolytic Enzyme Composition #1; type: biochemical, Trichoderma reesei
Experimental: Various (biologically common) divalent metal cations with variable ionic radii were tested in 2.8 ml Deep Well Microplates (VWR International, West Chester, Pa., USA) (“mini-plate-scale”) containing 1 ml suspensions of 25 g of AVICEL® per liter in 50 mM sodium acetate pH 5 at 50° C. Cellulolytic Enzyme Composition #1 was added at 0.25 g per liter for each hydrolysis. The mini-plates were sealed at 160° C. for 2 seconds using an ABGENE® ALPS 300™ sealer (ABgene, Rochester, N.Y., USA). The sealed mini-plates were incubated at 50° C. in an INNOVA® 4080 incubator shaker at 150 rpm. Soluble reducing sugars were measured by HPLC as described in Example 30.
Iron-chelator complexes of variable size or redox property were tested for their ability to inhibit enzymatic hydrolysis of cellulose. […]

[3] = target: T2, Trichoderma reesei Cel7A cellobiohydrolase I (Trichoderma reesei, UniProt P62694); experiment: PASC hydrolysis by Cel7A cellobiohydrolase I; type: biochemical; conditions: 10 mM FeSO4; 2 g PASC and 40 mg enzyme per liter (FIG. 20A)
T2 construct: made in house
T2 sequence (P62694 18-513): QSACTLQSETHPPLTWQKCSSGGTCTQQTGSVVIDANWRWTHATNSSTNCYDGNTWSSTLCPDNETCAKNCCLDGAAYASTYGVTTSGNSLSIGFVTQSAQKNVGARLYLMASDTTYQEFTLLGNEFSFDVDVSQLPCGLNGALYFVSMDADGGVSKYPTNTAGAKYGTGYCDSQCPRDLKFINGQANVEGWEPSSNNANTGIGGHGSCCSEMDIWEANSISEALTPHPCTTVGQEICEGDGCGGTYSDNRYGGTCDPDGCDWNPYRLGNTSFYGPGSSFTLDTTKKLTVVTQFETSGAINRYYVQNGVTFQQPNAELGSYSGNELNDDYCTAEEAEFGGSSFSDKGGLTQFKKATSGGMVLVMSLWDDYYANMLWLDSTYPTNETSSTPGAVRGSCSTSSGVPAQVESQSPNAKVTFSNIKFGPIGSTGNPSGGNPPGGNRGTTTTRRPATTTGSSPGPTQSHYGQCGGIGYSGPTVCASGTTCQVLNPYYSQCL

[4] = target: T3, Trichoderma reesei Cel5A endoglucanase II (Trichoderma reesei, UniProt P07982); experiment: PASC hydrolysis by Cel5A endoglucanase II; type: biochemical; conditions: 10 mM FeSO4; 2 g PASC and 40 mg enzyme per liter (FIG. 20D)
T3 construct: made in house; host or cells: Aspergillus oryzae JaL250 (transformant JaL250AlLo27)
T3 sequence (P07982 22-418): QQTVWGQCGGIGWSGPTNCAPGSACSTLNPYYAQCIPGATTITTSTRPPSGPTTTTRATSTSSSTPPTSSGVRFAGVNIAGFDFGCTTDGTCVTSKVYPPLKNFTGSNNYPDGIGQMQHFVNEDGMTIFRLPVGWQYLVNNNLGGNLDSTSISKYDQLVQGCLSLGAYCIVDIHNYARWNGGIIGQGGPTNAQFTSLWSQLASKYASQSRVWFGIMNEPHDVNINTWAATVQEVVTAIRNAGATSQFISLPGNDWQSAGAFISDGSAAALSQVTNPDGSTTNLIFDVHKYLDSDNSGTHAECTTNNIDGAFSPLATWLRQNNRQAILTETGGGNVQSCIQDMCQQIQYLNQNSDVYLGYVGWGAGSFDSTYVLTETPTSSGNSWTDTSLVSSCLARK

[5] = target: Trichoderma reesei Cel6A cellobiohydrolase II (Trichoderma reesei, UniProt P07987); conditions: 10 mM FeSO4; 2 g PASC and 40 mg enzyme per liter (FIG. 20B)
Sequence of Trichoderma reesei Cel6A cellobiohydrolase II (P07987 25-471): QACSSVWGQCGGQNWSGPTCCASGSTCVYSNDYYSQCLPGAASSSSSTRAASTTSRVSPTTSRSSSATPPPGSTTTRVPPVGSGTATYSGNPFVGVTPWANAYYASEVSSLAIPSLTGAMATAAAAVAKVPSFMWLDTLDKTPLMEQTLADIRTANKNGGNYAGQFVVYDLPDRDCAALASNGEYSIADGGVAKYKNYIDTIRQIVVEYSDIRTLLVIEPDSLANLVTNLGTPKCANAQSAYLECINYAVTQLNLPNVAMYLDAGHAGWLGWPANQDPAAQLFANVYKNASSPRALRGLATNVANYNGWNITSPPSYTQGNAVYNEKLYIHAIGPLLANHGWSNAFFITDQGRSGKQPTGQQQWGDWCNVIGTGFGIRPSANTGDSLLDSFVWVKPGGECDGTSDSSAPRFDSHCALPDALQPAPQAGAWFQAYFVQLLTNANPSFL
Experimental: The inhibitory effect of ferrous ion was determined on Trichoderma reesei Cel7A cellobiohydrolase I, Trichoderma reesei Cel6A cellobiohydrolase II, Trichoderma reesei Cel7B endoglucanase I, and Trichoderma reesei Cel5A endoglucanase II using PASC as substrate.
A series of duplicate “mini-scale” hydrolysis reactions were performed according to the procedure described in Example 30, except that 10 mM FeSO4 and 2 g of PASC (dry weight) and 40 mg of enzyme per liter of 50 mM sodium acetate pH 5 were used.

[6] = system: Cellulolytic Enzyme Composition #1; experiment: mini-scale AVICEL hydrolysis by Cellulolytic Enzyme Composition #1; type: biochemical, Trichoderma reesei
Experimental: FIGS. 19A, 19B, 19C, and 19D show the effective inhibitory concentration range of Fe(II) on the hydrolysis of AVICEL® by Cellulolytic Enzyme Composition #1 (A and B) and on the hydrolysis of PASC by Cellulolytic Enzyme Composition #1 (C and D). The AVICEL® hydrolysis was conducted with […] of AVICEL® and 0.25 g of Cellulolytic Enzyme Composition #1 per liter of 50 mM sodium acetate pH 5 at 50° C. FeSO4 (mM): (∘) 0, (+) 1, (Δ) 3, (⋄) 5, (□) 10. Dixon plot linear regression line: 1/Rate=(0.035±0.003)[Fe(II)]+(0.043±0.015), r^2=0.978. Rate was estimated from the hydrolysis difference (%) at 24 and 6 hours. The PASC hydrolysis was conducted with 2 g of PASC and 50 mg of Cellulolytic Enzyme Composition #1 per liter of 50 mM sodium acetate pH 5 at 50° C. Dixon plot linear regression line: 1/Rate=(0.0042±0.0003)[Fe(II)]+(0.059±0.002), r^2=0.994. Rates were estimated from the hydrolysis difference (%) at 7 hours.
The effect of various salts (FeSO4, FeCl2, NaCl, Na2SO4, MnSO4, MnCl2) was determined in the hydrolysis of PCS by Cellulolytic Enzyme Composition #2. The PCS hydrolysis was performed in duplicate in capped 1.7 ml EPPENDORF® tubes (“mini-scale”) containing 1 ml suspensions of 43.4 g of PCS (dry weight) per liter, 10 mM salts in 50 mM sodium acetate pH 5. Cellulolytic Enzyme Composition #2 was added at 0.25 g per liter. Reactions without the addition of the salt served as controls. The capped tubes were incubated at 50° C. in an INNOVA® 4080 incubator shaker (New Brunswick Scientific Co., Inc., Edison, N.J., USA) at 150 rpm.
In one series of “mini-scale” hydrolysis reactions performed according to the procedure described in Example 30, the effect of 1 mM to 10 mM FeSO4 was evaluated in the hydrolysis of AVICEL® by Cellulolytic Enzyme Composition #1.

T1 sequence (Q2UUD6 20-861): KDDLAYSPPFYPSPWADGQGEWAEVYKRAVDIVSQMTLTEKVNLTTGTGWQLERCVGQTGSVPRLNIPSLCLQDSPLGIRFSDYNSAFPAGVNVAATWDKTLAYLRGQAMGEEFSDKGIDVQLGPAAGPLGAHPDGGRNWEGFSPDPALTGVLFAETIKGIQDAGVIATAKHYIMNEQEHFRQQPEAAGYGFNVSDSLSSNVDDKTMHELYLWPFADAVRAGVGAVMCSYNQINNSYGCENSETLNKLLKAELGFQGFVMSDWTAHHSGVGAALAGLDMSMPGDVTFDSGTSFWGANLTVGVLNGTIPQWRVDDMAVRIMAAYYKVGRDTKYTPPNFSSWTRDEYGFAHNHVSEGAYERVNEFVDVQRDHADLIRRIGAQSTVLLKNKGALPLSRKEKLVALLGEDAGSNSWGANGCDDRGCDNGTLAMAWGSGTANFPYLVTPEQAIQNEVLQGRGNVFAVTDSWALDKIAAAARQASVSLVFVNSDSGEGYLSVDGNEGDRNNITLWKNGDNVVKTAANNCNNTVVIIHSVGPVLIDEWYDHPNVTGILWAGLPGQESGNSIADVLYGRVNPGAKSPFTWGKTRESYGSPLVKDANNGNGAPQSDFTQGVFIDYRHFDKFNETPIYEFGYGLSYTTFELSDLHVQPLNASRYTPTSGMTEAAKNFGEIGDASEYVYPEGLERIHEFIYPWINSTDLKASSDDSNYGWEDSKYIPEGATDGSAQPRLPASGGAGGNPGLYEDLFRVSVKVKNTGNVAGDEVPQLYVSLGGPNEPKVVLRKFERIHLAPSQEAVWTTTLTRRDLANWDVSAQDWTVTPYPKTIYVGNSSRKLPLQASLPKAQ

Ferrous sulfate [FeSO4]
Effect on enzyme [1]: slightly inhibited
Effect on hydrolysis over concentration range ([2]; 0.1 to 10 mM): concentration-dependent inhibition
Type of inhibition (double-reciprocal plots) ([2]; 0.5 to 4 mM FeSO4, 0.6 to 4 g AVICEL per liter): mix-type inhibition
Effect on enzyme [3]: significantly inhibited
Effect on enzyme [4]: significantly inhibited
Effect on enzyme [5]: significantly inhibited
Concentration dependence of inhibition ([6]; 1 mM to 10 mM FeSO4, AVICEL (FIG. 19A)): increasingly inhibitory
Ki ([6]; on AVICEL, 23 g AVICEL and 0.25 g enzyme per liter, read-out: Ki (x-intercept of Dixon plot)): ~1300 µM
